Assay results taken from patent US6737383B1, “Herbicidal oxadiazolidines” (priority 1999, dated 2004).

How the values were obtained:
[1] = test system: rice; assay: Test B flood test rice; type: in vivo, Oryza sativa
How it was run: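 Read-out is a visual response score from 0 (no effect) to 10 (complete control), assigned by comparison with untreated controls. Treatment was applied at the 2-leaf stage, and plants stayed in the greenhouse for twelve to sixteen days before scoring.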

[2] = test system: velvetleaf; assay: Test B pre/postemergence velvetleaf; type: in vivo, Abutilon theophrasti
How it was run: (§1)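 Response is a visual 0-to-10 score relative to untreated plants, where 0 means no effect and 10 means complete control, taken twelve to sixteen days after application. Treatments went onto soil at planting and onto foliage of 1- to 4-leaf plants, using a surfactant-containing non-phytotoxic solvent.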

[3] = test system: corn; assay: Test B pre/postemergence corn; type: in vivo, Zea mays
How it was run: as §1

[4] = test system: crabgrass; assay: Test B pre/postemergence crabgrass; type: in vivo, Digitaria sanguinalis
How it was run: as §1

[5] = Pre-emergence, Rate 1000 g/ha, scale 0 to 10 (0 no effect, 10 complete control)
[6] = Rate 125 g/ha, Pre-emergence, flood test species, scale 0 to 10 where 0 is no effect and 10 is complete control
[7] = Rate 250 g/ha, Pre-emergence, flood-test species, scale 0 to 10, 0 is no effect, 10 is complete control
[8] = Rate 500 g/ha, Pre-emergence, flood test species, scale 0 to 10 (0 no effect, 10 complete control)
[9] = Preemergence, Rate 62 g/ha, scale of 0 to 10 where 0 is no effect and 10 is complete control
[10] = Preemergence, Rate 250 g/ha, scale of 0 to 10 where 0 is no effect and 10 is complete control
[11] = Preemergence, Rate 500 g/ha, scale of 0 to 10 where 0 is no effect and 10 is complete control
[12] = Rate 62 g/ha, Postemergence, scale 0 to 10 (0 no effect, 10 complete control)
[13] = Rate 125 g/ha, Postemergence, scale of 0 to 10 where 0 is no effect and 10 is complete control
[14] = Rate 250 g/ha, Postemergence, scale of 0 to 10 where 0 is no effect and 10 is complete control
[15] = Rate 500 g/ha, Postemergence, scale 0 to 10, 0 no effect, 10 complete control
[16] = Rate 62 g/ha, headed Pre-emergence (flood test species), scale 0 to 10 (0 no effect, 10 complete control)
[17] = Postemergence, Rate 125 g/ha, scale 0 to 10, 0 is no effect, 10 is complete control
[18] = Postemergence, Rate 250 g/ha, scale 0 to 10, 0 is no effect, 10 is complete control
[19] = Preemergence, Rate 62 g/ha, scale 0 to 10 (0 no effect, 10 complete control)
[20] = Rate 62 g/ha, Postemergence, scale of 0 to 10 where 0 is no effect and 10 is complete control

Structure (SMILES)	Rice plant response rating [1, 6]	Rice plant response rating [1, 7]	Rice plant response rating [1, 8]	Velvetleaf plant response rating [2, 9]	Velvetleaf plant response rating (0 to 10 scale) ([2]; Preemergence, Rate 125 g/ha)	Velvetleaf plant response rating [2, 10]	Velvetleaf plant response rating [2, 11]	Velvetleaf plant response rating [2, 12]	Corn plant response rating [3, 9]	Corn plant response rating (0 to 10 scale) ([3]; Preemergence, Rate 125 g/ha)	Corn plant response rating [3, 10]	Corn plant response rating [3, 11]	Corn plant response rating [3, 12]	Crabgrass plant response rating [4, 9]	Crabgrass plant response rating (0 to 10 scale) ([4]; Preemergence, Rate 125 g/ha)	Crabgrass plant response rating [4, 10]	Crabgrass plant response rating [4, 11]	Crabgrass plant response rating [4, 12]	Plant response rating, Velvetleaf [2, 15]	Plant response rating, Corn [3, 15]	other results
CCN(C(=O)n1oc(=O)n(C2CCCCC2)c1=O)C1CCCCC1 [Compound 308]	0	0	0	0	0	0	0	0	0	0	0	0	0	0	0	0	0	0	–	–	Rice plant response rating [1, 5]: 0; Velvetleaf plant response rating [2, 13]: 0; Plant response rating, Velvetleaf [2, 14]: 0; Corn plant response rating [3, 13]: 0; Plant response rating, Corn [3, 14]: 0; Corn plant response rating [3, 15]: 0; Crabgrass plant response rating [4, 13]: 0; Plant response rating, Crabgrass [4, 14]: 0
CC(C)n1c(=O)on(C(=O)N(c2ccc(Cl)cc2Cl)C2CCC2)c1=O [Compound 319]	0	0	0	0	0	0	0	0	0	0	0	0	0	0	0	2	3	0	–	–	Rice plant response rating [1, 16]: 0; Velvetleaf plant response rating [2, 13]: 0; Plant response rating, Velvetleaf [2, 14]: 0; Corn plant response rating [3, 13]: 0; Plant response rating, Corn [3, 14]: 0; Corn plant response rating [3, 15]: 0; Crabgrass plant response rating [4, 13]: 0; Plant response rating, Crabgrass [4, 14]: 0
C=CCn1c(=O)on(C(=O)N(c2ccc(Cl)cc2)C(C)C2CC2)c1=O (stereo not drawn) [Compound 325]	0	0	0	0	0	0	0	0	0	0	0	0	0	0	0	1	2	0	2	0	Rice plant response rating [1, 16]: 0; Velvetleaf plant response rating [2, 13]: 0; Plant response rating, Velvetleaf [2, 14]: 0; Corn plant response rating [3, 13]: 0; Plant response rating, Corn [3, 14]: 0; Crabgrass plant response rating [4, 13]: 0; Plant response rating, Crabgrass [4, 14]: 0; Plant response rating, Crabgrass [4, 15]: 0
CC(C)N(C(=O)n1oc(=O)n(-c2ccc3ccccc3c2)c1=O)c1ccc(Cl)cc1 [Compound 333]	0	0	0	0	0	0	0	0	0	0	0	0	0	0	0	0	3	0	0	0	Rice plant response rating [1, 5]: 0; Plant response rating, Velvetleaf [2, 17]: 0; Plant response rating, Corn [3, 17]: 0; Plant response rating, Crabgrass [4, 17]: 0; Plant response rating, Crabgrass [4, 15]: 0
Cc1ccc(N(C(=O)n2oc(=O)n(-c3ccc4ccccc4c3)c2=O)C(C)C)cc1 [Compound 334]	0	0	0	0	0	0	0	0	0	0	0	0	0	0	0	0	0	0	0	0	Rice plant response rating [1, 16]: 0; Plant response rating, Velvetleaf [2, 17]: 0; Plant response rating, Corn [3, 17]: 0; Plant response rating, Crabgrass [4, 17]: 0; Plant response rating, Crabgrass [4, 15]: 0
Cc1c(-n2c(=O)on(C(=O)N(c3ccc(Cl)cc3)C(C)C)c2=O)ccc2ccccc12 [Compound 336]	0	0	0	0	0	0	0	0	0	0	0	0	0	0	0	0	0	0	0	0	Rice plant response rating [1, 16]: 0; Plant response rating, Velvetleaf [2, 17]: 0; Plant response rating, Corn [3, 17]: 0; Plant response rating, Crabgrass [4, 17]: 0; Plant response rating, Crabgrass [4, 15]: 0
Cc1nsc(Cl)c1Cn1c(=O)on(C(=O)N(c2ccccc2)C(C)C)c1=O [Compound 374]	–	0	0	–	0	0	0	–	–	0	0	0	–	–	6	9	9	–	1	0	Plant response rating, Rice (0 to 10 scale, 0 is no effect, 10 is complete control) ([1]; Rate 62 g/ha, flood test species, Pre-emergence, visual evaluation after twelve to sixteen days): 0; Rice plant response rating (0 to 10 scale, 0 is no effect, 10 is complete control) ([1]; Rate 125 g/ha, under heading Pre-emergence, flood test species, visual evaluation after twelve to sixteen days): 0; Plant response rating, Velvetleaf [2, 17]: 0; Plant response rating, Velvetleaf [2, 18]: 0; Plant response rating, Velvetleaf [2, 19]: 0; Velvetleaf plant response rating [2, 20]: 0; Plant response rating, Corn [3, 17]: 0; Plant response rating, Corn [3, 18]: 0; Plant response rating, Corn [3, 19]: 0; Corn plant response rating [3, 20]: 0; Plant response rating, Crabgrass [4, 17]: 0; Plant response rating, Crabgrass [4, 18]: 0; Plant response rating, Crabgrass [4, 19]: 6; Crabgrass plant response rating [4, 20]: 0; Plant response rating, Crabgrass [4, 15]: 3
